Assay results reported in the kinase profiling compilation of Christmann-Franck et al. (2016).

Key:
Assay in all cases: KINOMEscan competition binding
Conditions in all cases: compound 10.0 µM
DAPK3 (human) = DAPK3 (human) (UniProt O43293)
PDPK1 (human) = PDPK1 (human) (UniProt O15530)
FES (human) = FES (human) (UniProt P07332)
STK10 (human) = STK10 (human) (UniProt O94804)
CDC2L2 (human) = CDC2L2 (human) (UniProt Q9UQ88)
PIP4K2B (human) = PIP4K2B (human) (UniProt P78356)
[1] = system: KIT (human), P10721 [D816V]
Chain of KIT (human), P10721 [D816V] (P10721 whole entry D816V, looked up): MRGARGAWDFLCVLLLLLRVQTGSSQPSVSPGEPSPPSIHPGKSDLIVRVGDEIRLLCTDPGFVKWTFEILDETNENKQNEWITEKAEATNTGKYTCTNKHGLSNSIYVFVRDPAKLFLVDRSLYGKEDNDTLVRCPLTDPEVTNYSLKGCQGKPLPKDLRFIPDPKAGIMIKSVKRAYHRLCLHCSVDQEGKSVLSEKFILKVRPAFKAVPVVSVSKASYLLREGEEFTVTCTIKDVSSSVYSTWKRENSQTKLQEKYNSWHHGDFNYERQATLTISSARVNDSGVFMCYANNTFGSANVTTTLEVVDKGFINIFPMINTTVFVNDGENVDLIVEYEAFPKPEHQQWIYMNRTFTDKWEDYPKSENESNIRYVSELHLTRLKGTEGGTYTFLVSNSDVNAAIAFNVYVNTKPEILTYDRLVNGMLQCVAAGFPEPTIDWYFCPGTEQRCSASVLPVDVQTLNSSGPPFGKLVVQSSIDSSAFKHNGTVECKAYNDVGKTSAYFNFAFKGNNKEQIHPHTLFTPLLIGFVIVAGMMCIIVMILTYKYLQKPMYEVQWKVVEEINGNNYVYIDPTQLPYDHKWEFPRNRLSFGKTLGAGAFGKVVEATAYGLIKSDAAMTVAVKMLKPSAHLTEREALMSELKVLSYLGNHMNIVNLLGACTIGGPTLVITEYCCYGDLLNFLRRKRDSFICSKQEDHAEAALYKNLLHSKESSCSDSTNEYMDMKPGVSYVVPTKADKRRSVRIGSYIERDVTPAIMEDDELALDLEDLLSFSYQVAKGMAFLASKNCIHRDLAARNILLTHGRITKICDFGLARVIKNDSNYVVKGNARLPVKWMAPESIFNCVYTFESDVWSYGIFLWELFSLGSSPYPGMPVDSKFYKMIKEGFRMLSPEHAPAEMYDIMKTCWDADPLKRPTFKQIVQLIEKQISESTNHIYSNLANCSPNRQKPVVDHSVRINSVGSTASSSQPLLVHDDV

AKT2 (human) = AKT2 (human) (UniProt P31751)
EPHB2 (human) = EPHB2 (human) (UniProt P29323)
RPS6KA4 KD1 (human) = RPS6KA4 KD1 (human) (UniProt O75676)
MAPK6 (human) = MAPK6 (human) (UniProt Q16659)
Chain of MAPK6 (human) (Q16659 whole entry, looked up): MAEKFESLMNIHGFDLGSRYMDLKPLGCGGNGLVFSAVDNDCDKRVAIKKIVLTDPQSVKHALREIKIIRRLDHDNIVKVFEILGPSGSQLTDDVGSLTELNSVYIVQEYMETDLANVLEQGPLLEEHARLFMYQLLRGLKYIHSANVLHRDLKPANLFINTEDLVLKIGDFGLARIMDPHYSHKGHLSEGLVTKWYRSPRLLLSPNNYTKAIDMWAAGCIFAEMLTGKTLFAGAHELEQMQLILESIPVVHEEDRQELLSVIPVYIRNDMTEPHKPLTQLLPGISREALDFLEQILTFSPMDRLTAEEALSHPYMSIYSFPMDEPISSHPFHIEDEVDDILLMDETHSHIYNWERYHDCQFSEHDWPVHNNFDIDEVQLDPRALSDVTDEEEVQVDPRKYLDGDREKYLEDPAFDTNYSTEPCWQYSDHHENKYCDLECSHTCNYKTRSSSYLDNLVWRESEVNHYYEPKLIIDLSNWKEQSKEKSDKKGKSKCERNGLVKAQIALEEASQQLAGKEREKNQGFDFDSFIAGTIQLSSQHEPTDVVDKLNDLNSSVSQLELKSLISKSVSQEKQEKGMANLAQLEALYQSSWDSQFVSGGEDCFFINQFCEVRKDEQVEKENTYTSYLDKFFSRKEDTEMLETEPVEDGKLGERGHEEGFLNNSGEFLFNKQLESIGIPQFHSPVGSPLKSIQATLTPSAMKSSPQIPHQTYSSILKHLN

PLK3 (human) = PLK3 (human) (UniProt Q9H4B4)
MAP2K6 (human) = MAP2K6 (human) (UniProt P52564)
Chain of MAP2K6 (human) (P52564 whole entry, looked up): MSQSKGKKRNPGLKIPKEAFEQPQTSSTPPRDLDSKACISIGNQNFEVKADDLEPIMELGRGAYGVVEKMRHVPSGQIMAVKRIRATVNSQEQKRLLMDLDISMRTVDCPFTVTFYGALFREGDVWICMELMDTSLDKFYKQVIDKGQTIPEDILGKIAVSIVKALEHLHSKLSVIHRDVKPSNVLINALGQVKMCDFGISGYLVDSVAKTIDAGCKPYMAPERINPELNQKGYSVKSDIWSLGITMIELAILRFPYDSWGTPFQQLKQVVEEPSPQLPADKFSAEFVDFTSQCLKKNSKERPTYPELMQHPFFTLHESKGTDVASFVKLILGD

MAP3K3 (human) = MAP3K3 (human) (UniProt Q99759)
SGK110 (human) = SGK110 (human) (UniProt P0C264)
DCLK1 (human) = DCLK1 (human) (UniProt O15075)
LIMK2 (human) = LIMK2 (human) (UniProt P53671)
Chain of LIMK2 (human) (P53671 whole entry, looked up): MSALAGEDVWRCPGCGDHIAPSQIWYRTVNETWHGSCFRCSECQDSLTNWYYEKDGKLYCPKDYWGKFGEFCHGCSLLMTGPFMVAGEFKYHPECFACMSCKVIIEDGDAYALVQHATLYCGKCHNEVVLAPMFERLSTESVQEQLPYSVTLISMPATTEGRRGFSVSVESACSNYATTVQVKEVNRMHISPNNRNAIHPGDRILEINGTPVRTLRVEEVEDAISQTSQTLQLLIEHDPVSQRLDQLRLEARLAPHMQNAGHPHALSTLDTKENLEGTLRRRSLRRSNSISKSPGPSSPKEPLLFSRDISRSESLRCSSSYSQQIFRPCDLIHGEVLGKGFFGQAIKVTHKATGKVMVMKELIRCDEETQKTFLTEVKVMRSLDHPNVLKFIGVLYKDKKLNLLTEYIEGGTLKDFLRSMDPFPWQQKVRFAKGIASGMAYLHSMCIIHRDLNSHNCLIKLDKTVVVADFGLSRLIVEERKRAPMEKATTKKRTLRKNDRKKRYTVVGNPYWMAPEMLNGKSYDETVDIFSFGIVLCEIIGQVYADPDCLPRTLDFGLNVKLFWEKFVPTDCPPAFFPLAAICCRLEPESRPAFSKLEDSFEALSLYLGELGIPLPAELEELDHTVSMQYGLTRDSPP

EPHB3 (human) = EPHB3 (human) (UniProt P54753)
CDK11B (human) = CDK11B (human) (UniProt P21127)
MARK3 (human) = MARK3 (human) (UniProt P27448)
MAPK15 (human) = MAPK15 (human) (UniProt Q8TD08)
IKBKE (human) = IKBKE (human) (UniProt Q14164)
ERBB4 (human) = ERBB4 (human) (UniProt Q15303)
MAPK11 (human) = MAPK11 (human) (UniProt Q15759)
STK4 (human) = STK4 (human) (UniProt Q13043)
PTK2 (human) = PTK2 (human) (UniProt Q05397)
AKT1 (human) = AKT1 (human) (UniProt P31749)
Chain of AKT1 (human) (P31749 whole entry, looked up): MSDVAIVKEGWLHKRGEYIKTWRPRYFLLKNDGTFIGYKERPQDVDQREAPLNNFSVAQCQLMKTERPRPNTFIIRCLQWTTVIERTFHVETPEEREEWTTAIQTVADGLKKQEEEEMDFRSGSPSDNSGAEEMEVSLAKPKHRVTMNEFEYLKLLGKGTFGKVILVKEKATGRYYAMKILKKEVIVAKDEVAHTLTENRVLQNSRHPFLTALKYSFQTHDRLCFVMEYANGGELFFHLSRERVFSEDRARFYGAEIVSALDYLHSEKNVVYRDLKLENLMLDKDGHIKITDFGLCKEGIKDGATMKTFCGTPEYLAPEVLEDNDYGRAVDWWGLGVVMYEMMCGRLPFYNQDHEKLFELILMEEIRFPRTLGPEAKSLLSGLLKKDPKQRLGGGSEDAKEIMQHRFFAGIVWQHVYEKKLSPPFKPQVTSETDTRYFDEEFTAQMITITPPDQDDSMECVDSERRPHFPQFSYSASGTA

NEK7 (human) = NEK7 (human) (UniProt Q8TDX7)
Chain of NEK7 (human) (Q8TDX7 whole entry, looked up): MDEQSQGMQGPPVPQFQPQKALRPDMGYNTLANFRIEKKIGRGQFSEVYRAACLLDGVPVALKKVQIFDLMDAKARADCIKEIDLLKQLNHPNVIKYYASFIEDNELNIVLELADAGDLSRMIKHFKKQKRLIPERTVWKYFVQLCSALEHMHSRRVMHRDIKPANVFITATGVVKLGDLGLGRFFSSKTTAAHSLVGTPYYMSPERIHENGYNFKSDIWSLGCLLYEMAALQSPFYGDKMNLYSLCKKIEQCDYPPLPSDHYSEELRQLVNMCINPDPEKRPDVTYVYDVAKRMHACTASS

MAPKAPK5 (human) = MAPKAPK5 (human) (UniProt Q8IW41)
TGFBR2 (human) = TGFBR2 (human) (UniProt P37173)
TAOK3 (human) = TAOK3 (human) (UniProt Q9H2K8)
PIP5K1A (human) = PIP5K1A (human) (UniProt Q99755)
LTK (human) = LTK (human) (UniProt P29376)
MAPK1 (human) = MAPK1 (human) (UniProt P28482)
STK16 (human) = STK16 (human) (UniProt O75716)
TSSK1B (human) = TSSK1B (human) (UniProt Q9BXA7)
NLK (human) = NLK (human) (UniProt Q9UBE8)
Chain of NLK (human) (Q9UBE8 whole entry, looked up): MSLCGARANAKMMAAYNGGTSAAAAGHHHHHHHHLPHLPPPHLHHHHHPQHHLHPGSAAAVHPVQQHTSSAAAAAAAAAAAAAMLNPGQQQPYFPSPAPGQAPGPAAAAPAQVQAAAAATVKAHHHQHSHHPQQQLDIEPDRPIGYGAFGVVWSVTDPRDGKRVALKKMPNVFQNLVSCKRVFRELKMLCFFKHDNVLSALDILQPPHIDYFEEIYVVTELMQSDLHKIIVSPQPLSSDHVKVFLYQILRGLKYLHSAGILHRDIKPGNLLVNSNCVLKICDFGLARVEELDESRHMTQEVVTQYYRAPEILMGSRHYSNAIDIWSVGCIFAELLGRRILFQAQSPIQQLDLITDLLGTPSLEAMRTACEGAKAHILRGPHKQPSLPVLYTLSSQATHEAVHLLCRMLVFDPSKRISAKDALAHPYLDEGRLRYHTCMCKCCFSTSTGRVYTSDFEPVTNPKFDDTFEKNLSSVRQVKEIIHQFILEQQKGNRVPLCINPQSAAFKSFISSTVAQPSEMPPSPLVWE

ADCK3 (human) = ADCK3 (human) (UniProt Q8NI60)
PTK6 (human) = PTK6 (human) (UniProt Q13882)
TESK1 (human) = TESK1 (human) (UniProt Q15569)

Chain of DAPK3 (human) (O43293 whole entry, looked up): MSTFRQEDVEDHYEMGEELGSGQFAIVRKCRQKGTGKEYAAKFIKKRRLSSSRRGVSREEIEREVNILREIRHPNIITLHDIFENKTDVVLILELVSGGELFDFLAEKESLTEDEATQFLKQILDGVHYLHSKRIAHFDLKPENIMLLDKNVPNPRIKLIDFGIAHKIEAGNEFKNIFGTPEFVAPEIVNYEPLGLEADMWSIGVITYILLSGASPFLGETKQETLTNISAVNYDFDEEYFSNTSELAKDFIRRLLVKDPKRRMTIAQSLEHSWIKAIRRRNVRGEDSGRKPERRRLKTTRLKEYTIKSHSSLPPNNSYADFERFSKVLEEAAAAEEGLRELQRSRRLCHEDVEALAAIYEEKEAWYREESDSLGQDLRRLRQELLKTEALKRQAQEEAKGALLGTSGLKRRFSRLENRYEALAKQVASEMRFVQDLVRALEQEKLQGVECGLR
Chain of PDPK1 (human) (O15530 whole entry, looked up): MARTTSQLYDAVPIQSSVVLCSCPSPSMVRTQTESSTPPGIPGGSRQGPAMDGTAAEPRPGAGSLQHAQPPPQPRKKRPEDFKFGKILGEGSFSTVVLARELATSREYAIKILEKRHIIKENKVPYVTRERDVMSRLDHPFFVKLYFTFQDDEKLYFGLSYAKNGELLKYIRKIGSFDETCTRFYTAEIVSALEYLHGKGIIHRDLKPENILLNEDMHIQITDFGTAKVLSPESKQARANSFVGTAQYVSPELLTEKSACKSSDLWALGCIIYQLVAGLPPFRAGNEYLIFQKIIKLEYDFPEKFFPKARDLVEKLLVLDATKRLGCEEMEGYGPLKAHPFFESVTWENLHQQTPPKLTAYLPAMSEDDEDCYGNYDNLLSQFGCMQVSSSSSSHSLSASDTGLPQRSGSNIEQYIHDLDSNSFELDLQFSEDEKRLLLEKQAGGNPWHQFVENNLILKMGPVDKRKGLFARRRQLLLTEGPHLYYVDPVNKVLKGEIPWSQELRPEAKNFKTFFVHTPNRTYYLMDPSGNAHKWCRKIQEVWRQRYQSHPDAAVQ

| Structure (SMILES) | kinase still bound, per cent of control (DAPK3 (human)) [%] | kinase still bound, per cent of control (PDPK1 (human)) [%] | kinase still bound, per cent of control (FES (human)) [%] | kinase still bound, per cent of control (STK10 (human)) [%] | kinase still bound, per cent of control (CDC2L2 (human)) [%] | kinase still bound, per cent of control (PIP4K2B (human)) [%] | kinase still bound, per cent of control [1] [%] | kinase still bound, per cent of control (AKT2 (human)) [%] | kinase still bound, per cent of control (EPHB2 (human)) [%] | kinase still bound, per cent of control (RPS6KA4 KD1 (human)) [%] | kinase still bound, per cent of control (MAPK6 (human)) [%] | kinase still bound, per cent of control (PLK3 (human)) [%] | kinase still bound, per cent of control (MAP2K6 (human)) [%] | kinase still bound, per cent of control (MAP3K3 (human)) [%] | kinase still bound, per cent of control (SGK110 (human)) [%] | kinase still bound, per cent of control (DCLK1 (human)) [%] | kinase still bound, per cent of control (LIMK2 (human)) [%] | kinase still bound, per cent of control (EPHB3 (human)) [%] | kinase still bound, per cent of control (CDK11B (human)) [%] | kinase still bound, per cent of control (MARK3 (human)) [%] | further results |
| --- | --- | --- | --- | --- | --- | --- | --- | --- | --- | --- | --- | --- | --- | --- | --- | --- | --- | --- | --- | --- | --- |
| COc1cc(C(=O)NC2CCN(C)CC2)ccc1Nc1ncc2c(n1)N(C1CCCC1)C(C)CC(=O)N2C (stereo not given) | 17 | 100 | 100 | 29 | 100 | 100 | 100 | 100 | 100 | 100 | 100 | 0 | 100 | 100 | 100 | 4 | 100 | 100 | 100 | 100 | kinase still bound, per cent of control (MAPK15 (human)): 100%; kinase still bound, per cent of control (IKBKE (human)): 100%; kinase still bound, per cent of control (ERBB4 (human)): 100%; kinase still bound, per cent of control (MAPK11 (human)): 100%; kinase still bound, per cent of control (STK4 (human)): 100%; kinase still bound, per cent of control (PTK2 (human)): 0.4%; kinase still bound, per cent of control (AKT1 (human)): 100%; kinase still bound, per cent of control (NEK7 (human)): 100%; kinase still bound, per cent of control (MAPKAPK5 (human)): 100%; kinase still bound, per cent of control (TGFBR2 (human)): 100%; kinase still bound, per cent of control (TAOK3 (human)): 100%; kinase still bound, per cent of control (PIP5K1A (human)): 100%; kinase still bound, per cent of control (LTK (human)): 100%; kinase still bound, per cent of control (MAPK1 (human)): 100%; kinase still bound, per cent of control (STK16 (human)): 100%; kinase still bound, per cent of control (TSSK1B (human)): 100%; kinase still bound, per cent of control (NLK (human)): 100%; kinase still bound, per cent of control (ADCK3 (human)): 100%; kinase still bound, per cent of control (PTK6 (human)): 100%; kinase still bound, per cent of control (TESK1 (human)): 100% |
| Cc1ccc2nc(NCCN)c3ncc(C)n3c2c1 | 53 | 100 | 100 | 100 | 1 | 100 | 88 | 100 | 100 | 100 | 27 | 94 | 88 | 100 | 100 | 84 | 100 | 100 | 0.95 | 100 | kinase still bound, per cent of control (MAPK15 (human)): 19%; kinase still bound, per cent of control (IKBKE (human)): 100%; kinase still bound, per cent of control (ERBB4 (human)): 100%; kinase still bound, per cent of control (MAPK11 (human)): 87%; kinase still bound, per cent of control (STK4 (human)): 100%; kinase still bound, per cent of control (PTK2 (human)): 97%; kinase still bound, per cent of control (AKT1 (human)): 100%; kinase still bound, per cent of control (NEK7 (human)): 100%; kinase still bound, per cent of control (MAPKAPK5 (human)): 100%; kinase still bound, per cent of control (TGFBR2 (human)): 93%; kinase still bound, per cent of control (TAOK3 (human)): 59%; kinase still bound, per cent of control (PIP5K1A (human)): 92%; kinase still bound, per cent of control (LTK (human)): 95%; kinase still bound, per cent of control (MAPK1 (human)): 97%; kinase still bound, per cent of control (STK16 (human)): 100%; kinase still bound, per cent of control (TSSK1B (human)): 100%; kinase still bound, per cent of control (NLK (human)): 100%; kinase still bound, per cent of control (ADCK3 (human)): 61%; kinase still bound, per cent of control (PTK6 (human)): 99%; kinase still bound, per cent of control (TESK1 (human)): 79% |
| Nc1ccc(-c2ccc3ncc4ccc(=O)n(-c5cccc(C(F)(F)F)c5)c4c3c2)cn1 | 81 | 100 | 100 | 100 | 98 | 100 | 61 | 100 | 98 | 82 | 62 | 94 | 93 | 84 | 100 | 97 | 89 | 100 | 100 | 100 | kinase still bound, per cent of control (MAPK15 (human)): 18%; kinase still bound, per cent of control (IKBKE (human)): 89%; kinase still bound, per cent of control (ERBB4 (human)): 100%; kinase still bound, per cent of control (MAPK11 (human)): 83%; kinase still bound, per cent of control (STK4 (human)): 100%; kinase still bound, per cent of control (PTK2 (human)): 75%; kinase still bound, per cent of control (AKT1 (human)): 100%; kinase still bound, per cent of control (NEK7 (human)): 82%; kinase still bound, per cent of control (MAPKAPK5 (human)): 100%; kinase still bound, per cent of control (TGFBR2 (human)): 84%; kinase still bound, per cent of control (TAOK3 (human)): 80%; kinase still bound, per cent of control (PIP5K1A (human)): 78%; kinase still bound, per cent of control (LTK (human)): 100%; kinase still bound, per cent of control (MAPK1 (human)): 100%; kinase still bound, per cent of control (STK16 (human)): 59%; kinase still bound, per cent of control (TSSK1B (human)): 100%; kinase still bound, per cent of control (NLK (human)): 86%; kinase still bound, per cent of control (ADCK3 (human)): 88%; kinase still bound, per cent of control (PTK6 (human)): 100%; kinase still bound, per cent of control (TESK1 (human)): 94% |
